This note sets out measurements from US11090364B2, “Conjugates of a pharmaceutical agent and a moiety capable of binding to a glucose sensing protein” (SANOFI, priority 2016, dated 2021).

In this assay the test system is HepG2 cells. Nature of the assay: HepG2 assay: 14C 2-deoxy-D-glucose transport into HepG2 cells. To be noted: Homo sapiens, test compound 100 μM. Type of assay: cell-based. The protocol:
For measurement of ^14C 2-deoxy-D-glucose transport into HepG2 cells, cells were seeded in collagen treated 96-well plates (Cytostar-T Plates Perkin Elmer, 40.000 cells/200 μ/well) in medium complete (MEM W/GLUT-I, EARLES (Gibco #41090) /NEAA/PS/10% FCS) and grown for 48 hours. After starvation for 2 hours with MEM W/GLUT-I, EARLES (Gibco #41090)/NEAA/no serum 100 μl/well and washing twice with 200 μL KRB buffer, cells were stimulated in a dose dependent manner by adding 20 μL of test compound dilution 0-750 μM (7.5 times higher concentration than final) or 20 μL of 188 μM Cytochalasin B solution as negative control, to 80 μL KRB buffer and incubated for 30 minutes. After compound stimulation, the transport of ^14C 2-deoxy-D-glucose was started by adding of 50 μL ^14C 2-deoxy-D-glucose solution (250 μM 2-deoxy-D-glucose cold and 15 μM ^14C 2-deoxy-D-glucose 0.13 μCi/well) for 20 minutes. Transport was stopped by adding 50 μL/well 40 μM Cytochalasin B solution. Plates were measured in a 96-well Wallac Microbeta device. The cpm (counts per minute) values were used to determine the % inhibition values for the test compounds within each experiment, which then are averaged over the number of experiments performed.
Usually inhibition stands for the share of the control response that was lost under treatment. Read a high inhibition as a strong effect. On to `COc1cccc(N2CCN(CC3=C[C@H](OC(C)=O)[C@@H](OC(C)=O)[C@H](OC(C)=O)O3)CC2)c1` [Example 51, [(2S,3R,4S)-2,3-Diacetoxy-6-[[4-(3-methoxyphenyl)piperazin-1-yl]methyl]-3,4-dihydro-2H-pyran-4-yl] acetate], for which the inhibition at 100 µM worked out at 17.9%. Compound `COC(=O)c1ccc(-c2cn([C@H]3C(O)O[C@H](CO)[C@@H](O)[C@@H]3O)nn2)cc1` (stereo partly drawn) [Example 58, Methyl 4-[1-[(3R,4R,5S,6R)-2,4,5-trihydroxy-6-(hydroxymethyl)tetrahydropyran-3-yl]triazol-4-yl]benzoate] showed an inhibition at 100 µM of 20%. For the compound `O=[N+]([O-])c1ccc(NCCCCCCc2cn([C@@H]3O[C@H](CO)[C@@H](O)[C@H](O)[C@H]3O)nn2)c2nonc12` [Example 92, (2R,3S,4S,5R,6R)-2-(Hydroxymethyl)-6-[4-[6-[(4-nitro-2,1,3-benzoxadiazol-7-yl)amino]hexyl]triazol-1-yl]tetrahydropyran-3,4,5-triol], 100 µM produced 23.1% inhibition. Compound `COc1ccccc1N1CCN(CC2=C[C@H](OC(C)=O)[C@@H](OC(C)=O)[C@H](OC(C)=O)O2)CC1` [Example 52, [(2S,3R,4S)-2,3-Diacetoxy-6-[[4-(2-methoxyphenyl)piperazin-1-yl]methyl]-3,4-dihydro-2H-pyran-4-yl] acetate] showed an inhibition at 100 µM of 14.6%. As for `CN1CCN(C(=O)[C@H]2OC(O)[C@H](O)[C@@H](O)[C@@H]2O)CC1` (stereo partly drawn) [Example 21, (4-Methylpiperazin-1-yl)-[(2S,3S,4S,5R)-3,4,5,6-tetrahydroxytetrahydropyran-2-yl]methanone], testing at 100 µM gave an inhibition of 7.53%.

Compound `O=[N+]([O-])c1ccc(NCc2cn([C@H]3C(O)O[C@H](CO)[C@@H](O)[C@@H]3O)nn2)c2nonc12` (stereo partly drawn) [Example 63, (3R,4R,5S,6R)-6-(Hydroxymethyl)-3-[4-[[(4-nitro-2,1,3-benzoxadiazol-7-yl)amino]methyl]triazol-1-yl]tetrahydropyran-2,4,5-triol] yielded an inhibition at 100 µM of 37.6%.

On to `O=C([C@H]1OC(O)[C@H](O)[C@@H](O)[C@@H]1O)N1CCN(C2CCCCC2)CC1` (stereo partly drawn) [Example 29, (4-Cyclohexylpiperazin-1-yl)-[(2S,3S,4S,5R)-3,4,5,6-tetrahydroxytetrahydropyran-2-yl]methanone], for which testing at 100 µM gave an inhibition of 18.4%. `CCCCCc1cn([C@H]2C(O)O[C@H](CO)[C@@H](O)[C@@H]2O)nn1` (stereo partly drawn) [Example 65, (3R,4R,5S,6R)-6-(Hydroxymethyl)-3-(4-pentyltriazol-1-yl)tetrahydropyran-2,4,5-triol] registered an inhibition at 100 µM of 7.79%. In turn, `COc1ccc(N2CCN(C(=O)[C@H]3OC(O)[C@H](O)[C@@H](O)[C@@H]3O)CC2)cc1` (stereo partly drawn) [Example 37, [4-(4-Methoxyphenyl)piperazin-1-yl]-[(2S,3S,4S,5R)-3,4,5,6-tetrahydroxytetrahydropyran-2-yl]methanone] registered an inhibition at 100 µM of 6.88%. In turn, `CC(=O)O[C@@H]1OC(CN2CCN(c3ccccc3)CC2)=C[C@H](OC(C)=O)[C@H]1OC(C)=O` [Example 45, [(2S,3R,4S)-2,3-Diacetoxy-6-[(4-phenylpiperazin-1-yl)methyl]-3,4-dihydro-2H-pyran-4-yl] acetate] returned an inhibition at 100 µM of 29.3%.

`CN(C)c1cccc2c(S(=O)(=O)NCc3cn([C@H]4C(O)O[C@H](CO)[C@@H](O)[C@@H]4O)nn3)cccc12` (stereo partly drawn) [Example 54, 5-(Dimethylamino)-N-[[1-[(3R,4R,5S,6R)-2,4,5-trihydroxy-6-(hydroxymethyl)tetrahydropyran-3-yl]triazol-4-yl]methyl]naphthalene-1-sulfonamide] displayed an inhibition at 100 µM of 10.5%. `O=C([C@H]1OC(O)[C@H](O)[C@@H](O)[C@@H]1O)N1CCN(c2ccc(Cl)cc2)CC1` (stereo partly drawn) [Example 34, [4-(4-Chlorophenyl)piperazin-1-yl]-[(2S,3S,4S,5R)-3,4,5,6-tetrahydroxytetrahydropyran-2-yl]methanone]: 100 µM produced 20.5% inhibition. In turn, `O=[N+]([O-])c1ccc(NCc2cn([C@@H]3O[C@H](CO)[C@@H](O)[C@H](O)[C@H]3O)nn2)c2nonc12` [Example 88, (2R,3S,4S,5R,6R)-2-(Hydroxymethyl)-6-[4-[[(4-nitro-2,1,3-benzoxadiazol-7-yl)amino]methyl]triazol-1-yl]tetrahydropyran-3,4,5-triol] registered an inhibition at 100 µM of 31.4%.

`COc1cccc(N2CCN(C(=O)[C@H]3OC(O)[C@H](O)[C@@H](O)[C@@H]3O)CC2)c1` (stereo partly drawn) [Example 38, [4-(3-Methoxyphenyl)piperazin-1-yl]-[(2S,3S,4S,5R)-3,4,5,6-tetrahydroxytetrahydropyran-2-yl]methanone] yielded an inhibition at 100 µM of 12.7%.

In the case of `COc1ccc(N2CCN(CC3=C[C@H](OC(C)=O)[C@@H](OC(C)=O)[C@H](OC(C)=O)O3)CC2)cc1` [Example 50, [(2S,3R,4S)-2,3-Diacetoxy-6-[[4-(4-methoxyphenyl)piperazin-1-yl]methyl]-3,4-dihydro-2H-pyran-4-yl] acetate], at 100 µM the inhibition was 13.8%. As for `CN(Cc1ccccc1)Cc1cn([C@H]2C(O)O[C@H](CO)[C@@H](O)[C@@H]2O)nn1` (stereo partly drawn) [Example 59, (3R,4R,5S,6R)-3-[4-[[Benzyl(methyl)amino]methyl]triazol-1-yl]-6-(hydroxymethyl)tetrahydropyran-2,4,5-triol], testing at 100 µM gave an inhibition of 7.56%. In the case of `CC(=O)O[C@@H]1OC(CN2CCN(c3ccc(Br)cc3)CC2)=C[C@H](OC(C)=O)[C@H]1OC(C)=O` [Example 53, [(2S,3R,4S)-2,3-Diacetoxy-6-[[4-(4-bromophenyl)piperazin-1-yl]methyl]-3,4-dihydro-2H-pyran-4-yl] acetate], testing at 100 µM gave an inhibition of 23.9%.

Take `O=[N+]([O-])c1ccc(CCCCCCCc2cn([C@H]3C(O)O[C@H](CO)[C@@H](O)[C@@H]3O)nn2)c2nonc12` (stereo partly drawn) [Example 67, (3R,4R,5S,6R)-6-(Hydroxymethyl)-3-[4-[7-(4-nitro-2,1,3-benzoxadiazol-7-yl)heptyl]triazol-1-yl]tetrahydropyran-2,4,5-triol]: the inhibition at 100 µM worked out at 25.8%.

The compound `OC[C@H]1OC(O)[C@H](n2cc(-c3ccccc3)nn2)[C@@H](O)[C@@H]1O` (stereo partly drawn) [Example 55, (3R,4R,5S,6R)-6-(Hydroxymethyl)-3-(4-phenyltriazol-1-yl)tetrahydropyran-2,4,5-triol] showed an inhibition at 100 µM of 12.4%.

Compound `OC[C@H]1OC(O)[C@H](n2cc(CCCc3ccccc3)nn2)[C@@H](O)[C@@H]1O` (stereo partly drawn) [Example 57, (3R,4R,5S,6R)-6-(Hydroxymethyl)-3-[4-(3-phenylpropyl)triazol-1-yl]tetrahydropyran-2,4,5-triol] displayed an inhibition at 100 µM of 24.1%. Consider `OC1O[C@H](Cn2cc(-c3ccccc3)nn2)[C@@H](O)[C@H](O)[C@H]1O` (stereo partly drawn) [Example 69, (3R,4S,5S,6R)-6-[(4-Phenyltriazol-1-yl)methyl]tetrahydropyran-2,3,4,5-tetrol], for which at 100 µM the inhibition was 6.14%. Then `OC[C@H]1OC(O)[C@H](n2cc(CC3CCCCC3)nn2)[C@@H](O)[C@@H]1O` (stereo partly drawn) [Example 64, (3R,4R,5S,6R)-3-[4-(Cyclohexylmethyl)triazol-1-yl]-6-(hydroxymethyl)tetrahydropyran-2,4,5-triol], with 8.86%.

`C=CCN1CCN(C(=O)[C@H]2O[C@@H](OC(C)=O)[C@H](OC(C)=O)[C@@H](OC(C)=O)[C@@H]2OC(C)=O)CC1` [Example 8, [(2S,3R,4S,5S,6S)-2,3,5-Triacetoxy-6-(4-allylpiperazine-1-carbonyl)tetrahydropyran-4-yl] acetate] registered an inhibition at 100 µM of 7.67%. As to `OC[C@H]1OC(O)[C@H](n2cc(CCCCl)nn2)[C@@H](O)[C@@H]1O` (stereo partly drawn) [Example 66, (3R,4R,5S,6R)-3-[4-(3-Chloropropyl)triazol-1-yl]-6-(hydroxymethyl)tetrahydropyran-2,4,5-triol], the inhibition at 100 µM came out at 5.12%.

Compound `CC(=O)O[C@@H]1O[C@H](C(=O)N2CCN(c3ccc(Cl)cc3)CC2)[C@@H](OC(C)=O)[C@H](OC(C)=O)[C@H]1OC(C)=O` [Example 14, [(2S,3R,4S,5S,6S)-2,3,5-Triacetoxy-6-[4-(4-chlorophenyl)piperazine-1-carbonyl]tetrahydropyran-4-yl] acetate] registered an inhibition at 100 µM of 5.67%. `CC(=O)O[C@@H]1O[C@H](C(=O)N2CCN(C3CCCCC3)CC2)[C@@H](OC(C)=O)[C@H](OC(C)=O)[C@H]1OC(C)=O` [Example 9, [(2S,3R,4S,5S,6S)-2,3,5-Triacetoxy-6-(4-cyclohexylpiperazine-1-carbonyl)tetrahydropyran-4-yl] acetate]: the inhibition at 100 µM was 5.11%. In turn, `COc1ccc2cc(-c3cn([C@H]4C(O)O[C@H](CO)[C@@H](O)[C@@H]4O)nn3)ccc2c1` (stereo partly drawn) [Example 60, (3R,4R,5S,6R)-6-(Hydroxymethyl)-3-[4-(6-methoxy-2-naphthyl)triazol-1-yl]tetrahydropyran-2,4,5-triol] had an inhibition at 100 µM of 14.8%. `O=[N+]([O-])c1ccc(NCc2cn(C[C@H]3OC(O)[C@H](O)[C@@H](O)[C@@H]3O)nn2)c2nonc12` (stereo partly drawn) [Example 75, (3R,4S,5S,6R)-6-[[4-[[(4-Nitro-2,1,3-benzoxadiazol-7-yl)amino]methyl]triazol-1-yl]methyl]tetrahydropyran-2,3,4,5-tetrol] yielded an inhibition at 100 µM of 31.2%.
